Results from patent US20210077625A1, “RAY TRACING TECHNIQUE FOR WIRELESS CHANNEL MEASUREMENTS” (Cohere Technologies, Inc., priority 2017, published 2021).

Assays:
[1] = at 25° C.; cited from earlier work
[2] = test system: LM36R human melanoma xenograft; test: Tumor growth of vemurafenib-resistant LM36R melanoma xenograft in nude mice; type: in vivo, mouse; details: nude male mice, 5 mg of drug/kg per injection, bi-weekly tail vein, 4 weeks, n=5 per group; p-value 0.048 at week 4
Method: Vemurafenib-resistant LM36R human melanoma cells were inoculated (5.0×10^5 cells/mouse) into the right flank of athymic Nu/Nu nude male mice (Cr1:NU-Foxn1^nu strain code 088)) n=5 per group, and progression of tumor was recorded using the volume model of length×(width^2)×0.52. Mice were split into four groups consisting of a control (empty HANP), free Tris DBA-Pd, HANP with Tris DBA-Pd, and HANP with Tris DBA-Pd and αIGF1R antibody. Free Tris DBA-Pd was first dissolved in DMSO and then mixed with Kolliphor EL™. At last, the mixture was diluted by H2O before injection at concentration of 1 mg/mL of DBA. The ratio of DMSO, Kolliphor EL™ and H2O was controlled as 1:2:7 (v/v). The treatments were administered through bi-weekly tail vein injections over the course of 4 weeks (5 mg of drug/kg per injection). Tumor samples were analyzed for CD44 (hyaluronate receptor) expression by immunohistochemistry.

LM36R xenograft tumor = test: Gene array / microarray RNA analysis of LM36R xenograft tumors; type: in vivo
Method: Gene array was performed on all tumors. […] By varying the delivery process of a single drug, one might be able to prevent resistance.
RNA Extraction and QC: RNA was extracted using the Qiagen miRNEasy™ kit with on column DNAse treatment. Tissue was lysed and homogenized in Qiazol™ with a rotor-stator probe homogenizer for 40 seconds or until fully disrupted (1 ml Qiazol™ per 100 mg of tissue). RNA was eluted in 50 ul nuclease free water. One microliter was used to determine OD (optical density) values on a Nanodrop 1000. One microliter was used to assess sample profiles on the Agilent 2100 using the RNA 6000 Nano assay. Total RNA (250 ng) was amplified and labeled using the ThermoFisher Scientific Illuina™ TotalPrep™ RNA Amplification kit. Labeled cRNA was hybridized to Illumina HT12™ bead array. Image acquisition and data extraction were performed.

[3] = Dispersion, solubility and stability in water, FBS, cell culture media; type: physicochemical; details: for solubility (general statement): water / not specified
[4] = target: T1, N-myristoyltransferase 1 (NMT1) (Homo sapiens, UniProt P30419); details: reported in literature; cited from earlier work
T1 sequence (P30419 1-496): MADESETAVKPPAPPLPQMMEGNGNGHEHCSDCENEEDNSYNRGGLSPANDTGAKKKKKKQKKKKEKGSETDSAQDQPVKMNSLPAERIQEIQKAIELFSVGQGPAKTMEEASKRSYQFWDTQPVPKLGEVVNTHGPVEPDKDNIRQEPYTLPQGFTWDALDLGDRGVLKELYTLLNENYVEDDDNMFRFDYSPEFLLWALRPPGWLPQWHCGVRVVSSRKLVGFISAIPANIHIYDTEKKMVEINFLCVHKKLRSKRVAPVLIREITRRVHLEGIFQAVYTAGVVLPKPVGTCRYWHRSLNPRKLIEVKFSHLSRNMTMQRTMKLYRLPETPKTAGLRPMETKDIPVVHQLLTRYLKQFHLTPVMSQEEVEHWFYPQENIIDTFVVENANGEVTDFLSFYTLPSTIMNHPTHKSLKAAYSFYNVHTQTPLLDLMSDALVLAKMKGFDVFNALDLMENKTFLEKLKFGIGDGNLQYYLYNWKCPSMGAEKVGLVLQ

melanoma = details: reported in literature; cited from earlier work

Compound | percent solubility in water by weight [1] | inhibition of LM36R tumor growth (tumor volume) [2] | SCG2 (secretogranin 2) gene expression (LM36R xenograft tumor) | solubility (general statement) [3] | solubility (general statement) ([3]; listed as Tris (dibenzylideneacetone) dipalladium) | behaviour in water, FBS, and cell culture media ([3]; water, FBS, cell culture media) | activity against the enzyme N-myristoyltransferase 1 [4] | efficacy against melanoma in vitro and preclinical models of pancreatic cancer, chronic lymphocytic leukemia, multiple myeloma (melanoma)
CCCCCCCC [octane] | 0.63×10^−4 % w/w | – | – | – | – | – | – | –
Tris (dibenzylideneacetone) dipalladium [Tris DBA-Pd] | – | showed efficacy | downregulated | Water-insoluble | poor solubility | immediately precipitated | activity | efficacious
